Patent US20230310445A1, “LOX ENZYME INHIBITING METHODS AND COMPOSITIONS” (ANOVIA BIOSCIENCES, INC., priority 2020, published 2023)

Tests used:
[1] = target: T1, Recombinant human LOXL3 (lysyl oxidase like 3) (Homo sapiens, UniProt P58215); assay: LOXL3 inhibition assay (fluorometric, cadaverine/Amplex Red/HRP); type: biochemical; conditions: IC50 class; recombinant human LOXL3, cadaverine substrate; read-out: Activity Range LOXL3
T1 construct: purchased R&D systems
T1 sequence (P58215 26-753): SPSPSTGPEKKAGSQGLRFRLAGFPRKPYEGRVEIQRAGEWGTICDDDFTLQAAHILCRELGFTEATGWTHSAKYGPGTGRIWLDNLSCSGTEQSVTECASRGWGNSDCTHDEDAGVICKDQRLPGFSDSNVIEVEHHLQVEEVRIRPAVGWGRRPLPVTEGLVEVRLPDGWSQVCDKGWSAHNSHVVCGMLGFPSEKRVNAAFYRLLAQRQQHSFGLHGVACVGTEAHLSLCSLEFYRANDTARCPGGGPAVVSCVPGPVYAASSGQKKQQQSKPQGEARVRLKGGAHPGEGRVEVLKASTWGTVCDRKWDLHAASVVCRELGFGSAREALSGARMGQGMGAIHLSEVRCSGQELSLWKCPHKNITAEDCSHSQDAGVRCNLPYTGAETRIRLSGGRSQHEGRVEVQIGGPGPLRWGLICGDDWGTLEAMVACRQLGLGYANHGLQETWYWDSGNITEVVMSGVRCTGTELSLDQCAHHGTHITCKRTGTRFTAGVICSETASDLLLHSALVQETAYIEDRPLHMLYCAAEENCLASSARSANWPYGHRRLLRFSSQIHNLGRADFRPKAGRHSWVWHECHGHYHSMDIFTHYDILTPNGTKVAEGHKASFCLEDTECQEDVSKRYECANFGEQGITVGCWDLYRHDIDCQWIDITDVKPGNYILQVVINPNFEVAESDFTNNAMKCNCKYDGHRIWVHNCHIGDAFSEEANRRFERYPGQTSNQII
Protocol: The ability of compounds to inhibit one or more of the lysyl oxidases LOXL2 and/or LOXL3 was determined using a fluorometric assay. This assay measures the activity of lysyl oxidases by coupling the reaction with horseradish peroxidase-catalyzed […]. The activity assay protocol uses cadaverine as substrate that releases hydrogen peroxide upon transformation by the specific LOX family enzyme present in the sample. Hydrogen peroxide is in turn detected using a red fluorescence substrate for HRP-coupled reactions (Amplex Red Enzyme Assays, Thermo Scientific Fisher). This leads to increase in fluorescence that can be easily detected at Ex/Em=540/590 nm in a fluorescence microplate reader.
Enzymes: Recombinant human LOXL2 (lysyl oxidase like 2) and recombinant human LOXL3 (lysyl oxidase like 3) were purchased from R&D systems and assays were performed in 1.2 M urea, 50 mM sodium borate buffer pH 8.0, and 10 mM CaCl.
Reaction: Final concentration in the LOXL2 and LOXL3 assays were as following and performed in a total volume of […]:
Experimental procedure: 5 μl of freshly prepared reaction buffer were delivered to reaction wells. Compounds were resuspended in 100% DMSO at 10 mM and delivered into buffer using acoustic technology (Echo550; nanoliter range). A 3× solution of LOXL2 or LOXL3 in reaction buffer was prepared (“enzyme solution”) and 5 μL of enzyme solution was added into the reaction wells. Buffer only was added to column 1 for no protein control. Reactions were incubated for 30 minutes at 37° C. A 3×mixture of cadaverine, Amplex Red, and HRP (“Substrate/Detection Mix) was prepared and subsequently 5 μL of the mixture added to each reaction well. Progress of reactions was monitored for 60 minutes at 37° C. using Clariostar plate reader (ex 530-12, ems 600-40). For all activity assays, pan-LOX inhibitor CCT365623 (Tang et al, 2017) and LOXL2/LOXL3 inhibitor PAT-1251 (PharmaKea) were included as standards.
Data analysis: Slope of the linear portion of the progress curve was calculated using Clariostar software. Typical analysis interval was between 8-30 min, but varied between experiments. The background subtracted signals (No protein wells are considered as background) were converted to % activity relative to DMSO controls. Data was analyzed using GraphPad Prism 4 with “sigmoidal dose-response (variable slope)”; 4 parameters with Hill Slope. Constraints: Bottom=Constant equal to 0. Top=Must be less than 120.

[2] = target: T2, Recombinant human LOXL2 (lysyl oxidase like 2) (Homo sapiens, UniProt Q9Y4K0); assay: LOXL2 inhibition assay (fluorometric, cadaverine/Amplex Red/HRP); type: biochemical; conditions: IC50 class; recombinant human LOXL2, cadaverine substrate; read-out: Activity Range LOXL2
T2 construct: purchased R&D systems
T2 sequence (Q9Y4K0 26-774): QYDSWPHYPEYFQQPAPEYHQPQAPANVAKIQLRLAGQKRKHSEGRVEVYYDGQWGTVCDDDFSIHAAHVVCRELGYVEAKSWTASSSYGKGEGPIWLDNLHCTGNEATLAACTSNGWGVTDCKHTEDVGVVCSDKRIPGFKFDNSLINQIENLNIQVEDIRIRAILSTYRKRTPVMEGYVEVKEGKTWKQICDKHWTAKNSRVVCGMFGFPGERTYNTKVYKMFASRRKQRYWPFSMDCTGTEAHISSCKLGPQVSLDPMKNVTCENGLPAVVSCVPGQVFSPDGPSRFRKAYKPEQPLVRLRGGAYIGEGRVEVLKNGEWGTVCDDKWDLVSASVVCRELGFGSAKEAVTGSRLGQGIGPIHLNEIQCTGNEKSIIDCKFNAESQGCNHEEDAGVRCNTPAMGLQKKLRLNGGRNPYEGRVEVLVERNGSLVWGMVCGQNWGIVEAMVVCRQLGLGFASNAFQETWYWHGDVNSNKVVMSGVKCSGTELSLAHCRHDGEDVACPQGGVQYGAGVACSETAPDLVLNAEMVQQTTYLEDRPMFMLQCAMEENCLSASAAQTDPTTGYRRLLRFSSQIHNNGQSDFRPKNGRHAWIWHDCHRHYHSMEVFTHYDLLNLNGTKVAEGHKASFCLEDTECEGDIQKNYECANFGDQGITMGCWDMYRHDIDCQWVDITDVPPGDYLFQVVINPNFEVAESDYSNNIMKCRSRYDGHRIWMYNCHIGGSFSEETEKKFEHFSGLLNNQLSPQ
Method in brief: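 Both enzymes assayed in 1.2 M urea, 50 mM sodium borate pH 8.0, 10 mM CaCl, with 30 min compound–enzyme preincubation at 37° C before cadaverine/Amplex Red/HRP addition. Fluorescence followed 60 min at 37° C; linear-slope rates, background-subtracted, as % of DMSO control, fitted by 4-parameter variable-slope curve (bottom fixed at 0).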

[3] = Microsome stability study; type: in vitro ADME, mouse; conditions: for half-life at 2 μM / microsomal CLint at 2 μM / CLint scaled at 2 μM: CD-1, pH 7.4; for half-life at 2 μM / microsomal CLint at 2 μM: male mouse liver microsomes 0.5 mg/mL, NADPH; for CLint scaled at 2 μM: male, read-out: Scaled-up CLint; for CLint scaled at 2 μM / Predicted hepatic CL: mouse liver microsomes
Protocol: Pooled CD-1 mouse liver microsomes at 0.5 mg/mL were pre-incubated in phosphate buffer (100 mM, pH 7.4) containing 1 mM NADPH and 3 mM MgCl2 in a 96-well plate for 5 minutes at 37° C. Ultra-pure water was added instead of NADPH in the negative control group to exclude the misleading factor that resulted from instability of chemical itself. The reaction was initiated by adding test compound at the final concentration of 2 μM and incubated at 37° C. Aliquots were taken from the incubation at 0, 15, 30, 45 and 60 minutes followed by the addition of 4 volume of cold acetonitrile containing internal standards. Samples were centrifuged and supernatant was used for LC-MS/MS analysis.

| SMILES | IC50 [1] [nM] | IC50 [2] [nM] | half-life at 2 μM [3] [min] | microsomal CLint at 2 μM [3] [µL/min/mg] | CLint scaled at 2 μM [3] [mL/min/kg] | Predicted hepatic CL [3] [mL/min/kg] |
| --- | --- | --- | --- | --- | --- | --- |
| CS(=O)(=O)N1C[C@H](Oc2cccc(CN)c2)C[C@H](c2ccccc2F)C1 (racemic) [Example 70, cis-(3-((5-(2-Fluorophenyl)-1-(methylsulfonyl)piperidin-3-yl)oxy)phenyl)methanamine 2,2,2-trifluoroacetate] | 1000 to 30000 | ≤ 500 |  |  |  |  |
| NCc1ccc(S(=O)(=O)N2C[C@H](C(=O)N3CCS(=O)(=O)CC3)C[C@@H](c3ccccc3)C2)s1.O=C(O)C(F)(F)F (racemic) [Example 75B, trans-(1-((5-(Aminomethyl)thiophen-2-yl)sulfonyl)-5-phenylpiperidin-3-yl)(1,1-dioxidothiomorpholino)methanone 2,2,2-trifluoroacetate] |  | ≤ 500 | 37.1 | 37.3 | 163 | 58.02 |
| CS(=O)(=O)[C@@H]1C[C@@H](S(=O)(=O)c2cccc(CN)c2)CN(c2ccccc2)C1 (racemic) [Example 79, trans-(3-((-5-(Methylsulfonyl)-1-phenylpiperidin-3-yl)sulfonyl)phenyl)methanamine] | 1000 to 30000 | ≤ 500 |  |  |  |  |
| NCc1cccc(S(=O)(=O)N2C[C@H](C(=O)N3CCS(=O)(=O)CC3)C[C@@H](c3ccccc3)C2)c1 (racemic) [Example 85, trans-(1-((3-(Aminomethyl)phenyl)sulfonyl)-5-phenylpiperidin-3-yl)(1,1-dioxidothiomorpholino)methanone 2,2,2-trifluoroacetate] | 1000 to 30000 | ≤ 500 |  |  |  |  |
| CS(=O)(=O)N1CCN(C(=O)[C@H]2C[C@@H](c3ccccc3F)CN(S(=O)(=O)c3ccc(CN)s3)C2)CC1.O=C(O)C(F)(F)F (racemic) [Example 91, cis-(1-((5-(Aminomethyl)thiophen-2-yl)sulfonyl)-5-(2-fluorophenyl)piperidin-3-yl)(4-(methylsulfonyl)piperazin-1-yl)methanone 2,2,2-trifluoroacetate] |  | ≤ 500 | 24.5 | 56.5 | 247 | 65.98 |
| NCc1ccc(S(=O)(=O)N2C[C@H](C(=O)N3CCOCC3)C[C@H](c3ccccc3)C2)s1 [Example 13B, ((3R,5R)-1-((5-(aminomethyl)thiophen-2-yl)sulfonyl)-5-phenylpiperidin-3-yl)(morpholino)methanone] |  | ≤ 500 | 79.7 | 17.4 | 76.1 | 41.24 |

Continued, values first:

| IC50 [1] [nM] | IC50 [2] [nM] | half-life at 2 μM [3] [min] | microsomal CLint at 2 μM [3] [µL/min/mg] | CLint scaled at 2 μM [3] [mL/min/kg] | Predicted hepatic CL [3] [mL/min/kg] | SMILES |
| --- | --- | --- | --- | --- | --- | --- |
| 1000 to 30000 | ≤ 500 |  |  |  |  | CS(=O)(=O)[C@H]1C[C@@H](S(=O)(=O)c2cccc(CN)c2)CN(c2ccccc2F)C1 (racemic) [Example 92, cis-(3-((-1-(2-Fluorophenyl)-5-(methylsulfonyl)piperidin-3-yl)sulfonyl)phenyl)methanamine 2,2,2-trifluoroacetate] |
| > 30000 | 1000 to 30000 |  |  |  |  | NCc1cccc(S(=O)(=O)N2C[C@H](C(=O)N3CCS(=O)(=O)CC3)C[C@@H](c3ccccc3)C2)n1 (racemic) [Example 115T, trans-(1-((6-(Aminomethyl)pyridin-2-yl)sulfonyl)-5-phenylpiperidin-3-yl)(1,1-dioxidothiomorpholino)methanone 2,2,2-trifluoroacetate] |
|  | ≤ 500 | 37 | 37.4 | 164 | 58.07 | NCc1ccc(S(=O)(=O)N2C[C@@H](C(=O)N3CCOCC3)C[C@@H](C3CCCCC3)C2)s1.O=C(O)C(F)(F)F (racemic) [Example 120, cis-(1-((5-(Aminomethyl)thiophen-2-yl)sulfonyl)-5-cyclohexylpiperidin-3-yl)(morpholino)methanone 2,2,2-trifluoroacetate] |
| ≤ 500 | ≤ 500 |  |  |  |  | NCc1ccnc(S(=O)(=O)N2C[C@@H](C(=O)N3CCS(=O)(=O)CC3)C[C@@H](c3ccccc3)C2)c1 (racemic) [Example 134, cis-(1-((4-(Aminomethyl)pyridin-2-yl)sulfonyl)-5-phenylpiperidin-3-yl)(1,1-dioxidothiomorpholino)methanone 2,2,2-trifluoroacetate] |
| 1000 to 30000 | 500 to 1000 |  |  |  |  | NCc1cccc(S(=O)(=O)N2C[C@@H](C(=O)N3CCOCC3)C[C@@H](C3CCCCC3)C2)c1 (racemic) [Example 139, cis-(1-((3-(Aminomethyl)phenyl)sulfonyl)-5-cyclohexylpiperidin-3-yl)(morpholino)methanone] |
| 1000 to 30000 | 500 to 1000 |  |  |  |  | NCc1cccc(S(=O)(=O)N2C[C@@H](C(=O)N3CCS(=O)(=O)CC3)C[C@@H](C3CCCCC3)C2)c1 (racemic) [Example 140, cis-(1-((3-(Aminomethyl)phenyl)sulfonyl)-5-cyclohexylpiperidin-3-yl)(1,1-dioxidothiomorpholino)methanone] |
| ≤ 500 | ≤ 500 |  |  |  |  | CN(C)C(=O)[C@H]1C[C@@H](C2CCCCC2)CN(S(=O)(=O)c2cc(CN)ccn2)C1 (racemic) [Example 144, cis-1-((4-(Aminomethyl)pyridin-2-yl)sulfonyl)-5-cyclohexyl-N,N-dimethylpiperidine-3-carboxamide 2,2,2-trifluoroacetate] |
